The values that follow come from patent US9169252B2 (BRISTOL-MYERS SQUIBB COMPANY, priority 2014, dated 2015).

Where a name gives a salt, the structure may show the parent alone. Read-outs that look alike come from different tables or passages of the source.

The subject of assay [1] is TLR2 induced IL-6 in peripheral blood mononuclear cells (PBMCs). Description: PBMC TLR2 Induced IL-6 Assay. The class given is cell-based, human. The conditions noted are these: IL-6 by ELISA; for EC50: read-out: Cell EC50; for IC50: read-out: Cell IC50. The method, then:
PBMC TLR2 Induced IL-6 Assay
Peripheral blood mononuclear cells (PBMCs) were isolated from human blood containing the anti-coagulant EDTA (2.5 mM) by centrifugation over a FICOLL® gradient. PBMCs (250000 cells/well) were cultured in assay media (RPMI with 10% heat inactivated FCS) with compounds for 30 minutes at 37° C. in a 5% CO2 incubator. Following pretreatment with compounds, cells were stimulated for 5 hours with 10 µg/ml lipoteichoic acid (Invivogen, San Diego, Calif.), a TLR2 agonist. At the end of the culture, plates were centrifuged at 1800 rpm for 10 minutes to pellet the cells.
Background: ELISA stands for enzyme-linked immunosorbent assay.

For assay [2], the target named is IRAK4 (Homo sapiens (Human), UniProt Q9NWZ3). Description: IRAK4 Inhibition Assay. The class given is biochemical. The method, then:
The assays were performed in U-bottom 384-well plates. […] The reaction was initiated by the combination of IRAK4 with substrates and test compounds. The reaction mixture was incubated at room temperature for 60 min. and terminated by adding 45 μL of 35 mM EDTA to each sample. The reaction mixture was analyzed on the Caliper LABCHIP® 3000 (Caliper, Hopkinton, Mass.) by electrophoretic separation of the fluorescent substrate and phosphorylated product.

The mark [3] stands for this setting: PBMC TLR2 Induced IL-6 Assay, lipoteichoic acid stimulation.
Setting [4] is: IRAK4 Inhibition Assay, ATP 500 μM, read-out: IRAK4 IC50.
The mark [5] stands for this setting: Homo sapiens, PBMC, PBMC TLR2 Induced IL-6 Assay, lipoteichoic acid stimulation.
The mark [6] stands for this setting: Homo sapiens, PBMC, human PBMCs, lipoteichoic acid stimulated.
Setting [7] is: ATP 500 μM, IRAK4 0.6 nM, read-out: IRAK4 IC50.
Where [8] appears, read: human PBMCs, lipoteichoic acid stimulated.

IRAK4, sequence (Q9NWZ3 whole entry, species assumed): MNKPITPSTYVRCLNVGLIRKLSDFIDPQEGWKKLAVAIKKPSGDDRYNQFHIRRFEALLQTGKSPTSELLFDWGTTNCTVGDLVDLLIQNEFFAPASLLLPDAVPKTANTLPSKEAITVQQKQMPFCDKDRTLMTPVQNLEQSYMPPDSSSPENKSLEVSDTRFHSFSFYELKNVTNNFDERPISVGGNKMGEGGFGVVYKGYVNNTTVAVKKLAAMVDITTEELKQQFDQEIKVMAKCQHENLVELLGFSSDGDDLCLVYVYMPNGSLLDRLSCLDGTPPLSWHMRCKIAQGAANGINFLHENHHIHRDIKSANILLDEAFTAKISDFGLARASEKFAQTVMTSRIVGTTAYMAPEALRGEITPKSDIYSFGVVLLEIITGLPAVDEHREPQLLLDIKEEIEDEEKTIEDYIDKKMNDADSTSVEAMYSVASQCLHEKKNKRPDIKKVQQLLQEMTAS

For orientation: EC50 means the concentration needed to bring the measured effect to its halfway point. The IC50 is the concentration at which inhibition is half-maximal. As to “6-(5-cyano-1H-pyrrolo[2,3-b]pyridin-1-yl)-N—((S)-2-fluoro-3-hydroxy-3-methylbutyl)-4-((3-fluorotetrahydro-2H-pyran-4-yl)amino) nicotinamide [Example 108]”, the half-maximal effective concentration (EC50) in assay [1] (setting [3]) was found to be 172 nM. Further, the IC50 in assay [2] (setting [4]) worked out at 3.5 nM.

`CC(CCF)Nc1cc(-n2ncc3cc(C#N)cnc32)ncc1C(=O)NC[C@@H](F)C(C)(C)O` (mixture of isomers) [Example 205]: the concentration giving a half-maximal response (EC50) in assay [1] (setting [5]) is 240 nM. Further, the IC50 in assay [2] (setting [4]) was 7 nM.

As to `CC(F)Cn1cc(Nc2cc(-n3cnc4cc(C#N)cnc43)ncc2C(=O)NC[C@@H](F)C(C)(C)O)cn1` (mixture of isomers) [Example 378], the IC50 in assay [1] (setting [5]) is 655 nM; in assay [2] (setting [4]), 2.6 nM.

Turning to `CC(C)(O)[C@H](F)CNC(=O)c1cnc(-n2ccc3cc(C#N)cnc32)cc1NC1CC1c1c[nH]cn1` (mixture of isomers) [Example 460], the EC50 in assay [1] (setting [6]) amounted to 88 nM. In addition, the figures for the IC50 in assay [1] (setting [6]) and in assay [2] (setting [7]) were 113 nM and 3.3 nM, respectively.

Turning to `CC1COCCN1CCNc1cc(-n2ccc3cc(C#N)cnc32)ncc1C(=O)NC[C@@H](F)C(C)(C)O` (mixture of isomers) [Example 483], the EC50 in assay [1] (setting [6]) came out at 199 nM. Also, in assay [2] (setting [7]), the IC50 was 10.8 nM.

`CC(F)(CO)CNc1cc(-n2ncc3cc(C#N)cnc32)ncc1C(=O)NC[C@@H](F)C(C)(C)O` (mixture of isomers) [Example 575]: the results for the IC50 in assay [1] (setting [6]) and in assay [2] (setting [7]) were 587 nM and 11.8 nM, respectively.

On to `CC(CCO)Nc1cc(-n2ccc3cc(C#N)cnc32)ncc1C(=O)NC[C@@H](F)C(C)(C)O` (single isomer, unassigned) [Example 21], for which the 50% effective concentration (EC50) in assay [1] (setting [5]) stood at 51 nM. Further, in assay [2] (setting [4]), the IC50 is 2.3 nM.

In the case of `CC(CCO)Nc1cc(-n2ccc3cc(C#N)cnc32)ncc1C(=O)NC[C@@H](F)C(C)(C)O` (single isomer, unassigned) [Example 22], the EC50 in assay [1] (setting [3]) came to 47 nM. For the same molecule, the IC50 in assay [2] (setting [4]) was 1.8 nM.

With `CC(C)(O)[C@H](F)CNC(=O)c1cnc(-n2ccc3cc(C#N)cnc32)cc1NC1CCOCC1F` (single isomer, unassigned) [Example 106], the figures for the IC50 in assay [1] (setting [5]) and in assay [2] (setting [4]) were 896 nM and 1.9 nM, respectively. In assay [1] (setting [3]), the EC50 was 896 nM.

With `CC(C)(O)[C@H](F)CNC(=O)c1cnc(-n2ccc3cc(C#N)cnc32)cc1NC1CCOCC1F` (single isomer, unassigned) [Example 107], the EC50 in assay [1] (setting [3]) is 57 nM. For the same molecule, in assay [2] (setting [4]), the IC50 is 1.8 nM.

With `CC(C)(O)[C@H](F)CNC(=O)c1cnc(-n2ccc3cc(C#N)cnc32)cc1NC1CCC(F)C1` (single isomer, unassigned) [Example 109], the EC50 in assay [1] (setting [5]) was 45 nM. In assay [2] (setting [4]), the IC50 amounted to 1 nM.

For `CC(C)(O)[C@H](F)CNC(=O)c1cnc(-n2ccc3cc(C#N)cnc32)cc1NC1CCC(F)C1` (single isomer, unassigned) [Example 110], the 50% effective concentration (EC50) in assay [1] (setting [3]) stood at 47 nM. For the same molecule, the IC50 in assay [2] (setting [4]) turned out to be 1.3 nM.

As to `CC(C)(O)[C@H](F)CNC(=O)c1cnc(-n2ccc3cc(C#N)cnc32)cc1NC1CCCC(F)(F)C1O` (single isomer, unassigned) [Example 112], in assay [1] (setting [5]), the EC50 was 159 nM. Further, in assay [2] (IRAK4 IC50), the IC50 was determined as 4.4 nM.

As to `CC(C)Nc1cc(-n2ccc3cc(C#N)cnc32)ncc1C(=O)NC[C@@H](F)C(C)NC(C)C` (single isomer, unassigned) [Example 129], the EC50 in assay [1] (setting [3]) came to 451 nM. Further, the IC50 in assay [2] (setting [4]) was 4.1 nM.

On to `CC(C)Nc1cc(-n2ccc3cc(C#N)cnc32)ncc1C(=O)NC[C@@H](F)C(C)NC(C)C` (single isomer, unassigned) [Example 130], for which the EC50 in assay [1] (setting [3]) was determined as 99 nM. For the same molecule, in assay [2] (setting [4]), the IC50 was 2.3 nM.

In the case of `CC(C)(O)[C@H](F)CNC(=O)c1cnc(-n2ncc3cc(C#N)cnc32)cc1NC1CCCOC1` (single isomer, unassigned) [Example 142], the EC50 in assay [1] (setting [5]) was found to be 354 nM. Further, in assay [2] (setting [4]), the IC50 stood at 11.4 nM.

Turning to `CC(C)(O)[C@H](F)CNC(=O)c1cnc(-n2ncc3cc(C#N)cnc32)cc1NC1CCCOC1` (single isomer, unassigned) [Example 143], the EC50 in assay [1] (setting [3]) was determined as 185 nM. Also, in assay [2] (setting [4]), the IC50 stood at 6.5 nM.

In the case of `CC(F)[C@H](C)Nc1cc(-n2ncc3cc(C#N)cnc32)ncc1C(=O)NC[C@@H](F)C(C)(C)O` (single isomer, unassigned) [Example 202], the EC50 in assay [1] (setting [5]) was 131 nM. Further, the IC50 in assay [2] (setting [4]) was 10.6 nM.

For `CC(F)[C@H](C)Nc1cc(-n2ncc3cc(C#N)cnc32)ncc1C(=O)NC[C@@H](F)C(C)(C)O` (single isomer, unassigned) [Example 203], the EC50 in assay [1] (setting [3]) worked out at 124 nM. The IC50 in assay [2] (setting [4]) turned out to be 3.9 nM.

As to `CC(C)Nc1cc(-n2ncc3cc(C#N)cnc32)ncc1C(=O)NC[C@@H](F)C(O)C(C)C` (single isomer, unassigned) [Example 232], in assay [1] (setting [5]), the half-maximal effective concentration (EC50) was found to be 33 nM and the IC50 came out at 211 nM. Moreover, the IC50 in assay [2] (setting [4]) came to 2.3 nM.

For the molecule `CC(C)Nc1cc(-n2ncc3cc(C#N)cnc32)ncc1C(=O)NC[C@@H](F)C(O)C(C)C` (single isomer, unassigned) [Example 233], in assay [1] (setting [3]), the EC50 is 38 nM and the IC50 stood at 176 nM. For the same molecule, in assay [2] (setting [4]), the IC50 amounted to 3.6 nM.

As for `CC(CCF)Nc1cc(-n2ccc3cc(C#N)cnc32)ncc1C(=O)NC[C@@H](F)C(C)(C)O` (single isomer, unassigned) [Example 426], the EC50 in assay [1] (setting [6]) is 51 nM. In addition, the half-inhibitory concentration (IC50) in assay [2] (setting [7]) is 1.6 nM.

For `C[C@H](CF)Nc1cc(-n2ncc3cc(C#N)cnc32)ncc1C(=O)NC[C@@H](F)C(C)(C)O` [Example 114, 6-(5-Cyano-1H-pyrazolo[3,4-b]pyridin-1-yl)-N—((R)-2-fluoro-3-hydroxy-3-methylbutyl)-4-(((R)-1-fluoropropan-2-yl)amino)nicotinamide], the IC50 in assay [2] (setting [4]) is 4.6 nM.

As to `[2H]C([2H])([2H])OC(C)(C)[C@H](F)CNC(=O)c1cnc(-n2ccc3cc(C#N)cnc32)cc1NC(C)C` [Example 442], the EC50 in assay [1] (setting [6]) was determined as 42 nM.

Turning to `CC(C)Nc1cc(-n2ccc3cc(C#N)cnc32)ncc1C(=O)NC1CCC(C(C)(O)C2CC2)CC1` (stereo not shown) [Example 444], in assay [1] (setting [8]), the EC50 stood at 186 nM.

As to `CC(C)Nc1cc(-n2ccc3cc(C#N)cnc32)ncc1C(=O)NC1CCC(C(C)(O)C2CC2)CC1` (stereo not shown) [Example 446], the EC50 in assay [1] (setting [8]) was determined as 51 nM.

For `CC(C)(O)[C@H](F)CNC(=O)c1cnc(-n2ccc3cc(C(N)=O)cnc32)cc1NCC1CNC1` [Example 475], in assay [1] (setting [6]), the EC50 amounted to 305 nM and the IC50 came to 1180 nM.

On to `CC(C)Nc1cc(-n2ccc3cc(CNC(=O)CC(C)(C)O)cnc32)ncc1C(=O)NC[C@@H](F)C(C)(C)O` [Example 499], for which the IC50 in assay [1] (setting [6]) is 213 nM.

In the case of `CC(C)(O)[C@H](F)CNC(=O)c1cnc(-n2ncc3cc(C#N)cnc32)cc1Nc1ccc(C#N)cc1` [Example 523], in assay [1] (setting [6]), the EC50 worked out at 24 nM.

`CC(C)(O)[C@H](F)CNC(=O)c1cnc(-n2ncc3cc(C#N)cnc32)cc1N[C@@H]1CCN(c2ncc(F)cn2)C1` [Example 534]: the IC50 in assay [1] (setting [6]) was determined as 824 nM. Besides, the EC50 in assay [1] (setting [8]) was determined as 59 nM.

For the molecule `CC(C)(O)[C@H](F)CNC(=O)c1cnc(-n2ncc3cc(C#N)cnc32)cc1N[C@@H]1CCOC1` [Example 544, 6-(5-Cyano-1H-pyrazolo[3,4-b]pyridin-1-yl)-N—((R)-2-fluoro-3-hydroxy-3-methylbutyl)-4-(((R)-tetrahydrofuran-3-yl)amino)nicotinamide, TFA salt], the EC50 in assay [1] (human PBMCs, lipoteichoic acid stimulated, TFA salt) worked out at 239 nM.

On to `CC(C)(O)[C@H](F)CNC(=O)c1cnc(-n2ncc3cc(C#N)cnc32)cc1N[C@H]1CCOC1` [Example 545, 6-(5-Cyano-1H-pyrazolo[3,4-b]pyridin-1-yl)-N—((R)-2-fluoro-3-hydroxy-3-methylbutyl)-4-(((S)-tetrahydrofuran-3-yl)amino)nicotinamide, TFA salt], for which the EC50 in assay [1] (setting [6]) turned out to be 476 nM.

As to `CC(C)(O)[C@H](F)CNC(=O)c1cnc(-n2ncc3cc(C#N)cnc32)cc1N[C@@H]1CCOC1` [Example 548], the IC50 in assay [1] (setting [6]) was found to be 763 nM. Besides, the EC50 in assay [1] (setting [8]) came to 708 nM.

Take `CCCNc1cc(-n2ncc3cc(C#N)cnc32)ncc1C(=O)NC[C@@H](F)C(C)(C)O` [Example 592]: the IC50 in assay [1] (setting [6]) was 271 nM.

Take `CC(F)CCNc1cc(-n2ncc3cc(C#N)cnc32)ncc1C(=O)NC[C@@H](F)C(C)(C)O` (stereo partly shown) [Example 604]: the IC50 in assay [1] (setting [6]) stood at 104 nM.

For `CC(C)(O)[C@H](F)CNC(=O)c1cnc(-n2ncc3cc(C#N)cnc32)cc1NC1CCC(F)C1` (stereo partly shown) [Example 625], the IC50 in assay [1] (setting [8]) turned out to be 210 nM.

Consider `CC(C)(O)[C@H](F)CNC(=O)c1cnc(-n2ncc3cc(C#N)cnc32)cc1NC1CCC(F)C1` (stereo partly shown) [Example 626], for which, in assay [1] (setting [8]), the IC50 was found to be 76 nM.

Turning to `CC(C)(O)[C@H](F)CNC(=O)c1cnc(-n2ncc3cc(C#N)cnc32)cc1NC1CCC(F)C1` (stereo partly shown) [Example 627], in assay [1] (setting [8]), the IC50 amounted to 7 nM.
